Data from patent publication US8846746B2, “Pyrazole compound and pharmaceutical use thereof” (Japan Tobacco Inc., priority 2011, dated 2014).
pIC50: −log10 of the molar value.

Biological target: human SGLT1 (Homo sapiens (Human), UniProt P13866)
Test: SGLT1 inhibitory activity: 14C-AMG uptake into CHO-K1 cell line stably expressing human SGLT1
Type: cell-based
Conditions: 14C-AMG uptake, CHO-K1 cells expressing human SGLT1
Procedure, shortened: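 CHO-K1 cells stably expressing human SGLT1 were pre-incubated 20 min in Na(−) buffer (pH 7.4). Test compound in Na(+) buffer with BSA was added with ¹⁴C-AMG (8 kBq) plus unlabelled AMG (2 mM in the added solution) for 1 h at 37 °C.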

Chain of human SGLT1 (P13866 whole entry): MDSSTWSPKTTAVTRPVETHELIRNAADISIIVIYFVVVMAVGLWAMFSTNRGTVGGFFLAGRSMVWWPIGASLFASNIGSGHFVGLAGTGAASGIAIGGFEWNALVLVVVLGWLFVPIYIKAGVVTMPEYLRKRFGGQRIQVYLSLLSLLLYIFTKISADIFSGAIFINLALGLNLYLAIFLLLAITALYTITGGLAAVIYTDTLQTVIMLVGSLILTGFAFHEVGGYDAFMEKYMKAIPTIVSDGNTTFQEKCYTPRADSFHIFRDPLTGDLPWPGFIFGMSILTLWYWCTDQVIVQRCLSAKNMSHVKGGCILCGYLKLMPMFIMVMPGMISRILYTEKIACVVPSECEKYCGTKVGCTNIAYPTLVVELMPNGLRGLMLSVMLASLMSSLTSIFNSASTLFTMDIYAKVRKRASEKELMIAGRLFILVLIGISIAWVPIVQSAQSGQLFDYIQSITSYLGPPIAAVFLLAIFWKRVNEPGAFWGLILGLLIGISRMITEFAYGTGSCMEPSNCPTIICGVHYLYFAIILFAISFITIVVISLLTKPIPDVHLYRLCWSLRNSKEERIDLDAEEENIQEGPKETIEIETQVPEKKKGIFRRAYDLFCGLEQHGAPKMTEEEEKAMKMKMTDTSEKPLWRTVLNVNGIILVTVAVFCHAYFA

Going from `CC(C)Cc1cccc(-c2cc(NC(=O)[C@@H]3CNC(=O)C3)nn2-c2ccccc2)c1` [Example 71] to `CC(C)c1cccc(-c2cc(NC(=O)[C@H]3CNC(=O)C3)nn2-c2ccccc2)c1` [Example 54], the pIC50 falls from 8.46 to 8.00 (0.46 log units).

`Cc1ccccc1-n1nc(NC(=O)[C@H]2CNC(=O)C2)cc1-c1cccc(OCC(F)(F)F)c1` [Example 226] and `CCC(F)(F)c1cccc(-c2cc(NC(=O)[C@H]3CNC(=O)C3)nn2-c2ccccc2F)c1` [Example 182] are within 0.2 log units of each other in pIC50: 8.48 for the first, 8.42 for the second.

Compared with `CCCc1cccc(-c2cc(NC(=O)[C@@H]3CNC(=O)C3)nn2CC2CCCCC2)c1` [Example 112], `CCCc1cccc(-c2cc(NC(=O)[C@H]3CNC(=O)C3)nn2CC2CCCCC2)c1` [Example 111] is 0.26 log units higher in pIC50: 7.08 for the first, 7.34 for the second.

Going from `Cc1ccc(-c2cc(NC(=O)[C@H]3CNC(=O)C3)nn2-c2ccccc2)cc1` [Example 58] to `O=C1C[C@@H](C(=O)Nc2cc(-c3cccc(Cl)c3)n(-c3ccccc3)n2)CN1` [Example 38], the pIC50 rises from 5.46 to 6.89 (1.43 log units). The second is the more potent here.

Going from `CCCc1cccc(-c2cc(NC(=O)[C@@H]3CNC(=O)C3)nn2-c2ccccc2Cl)c1` [Example 101] to `CCCc1cccc(-c2cc(NC(=O)[C@H]3CNC(=O)C3)nn2-c2cccc(F)c2)c1` [Example 103], the pIC50 falls from 8.62 to 8.30 (0.32 log units).

Compared with `CCCc1cccc(-c2cc(NC(=O)[C@H]3CNC(=O)C3)nn2CCC(C)C)c1` [Example 135], `CCCc1cccc(-c2cc(NC(=O)[C@H]3CNC(=O)C3)nn2CC(F)(F)F)c1` [Example 66] is 1.28 log units lower in pIC50: 7.96 for the first, 6.68 for the second.

`O=C1C[C@@H](C(=O)Nc2cc(-c3cccc(OC(F)(F)F)c3)n(-c3ccc(F)cc3)n2)CN1` [Example 147] and `O=C1C[C@@H](C(=O)Nc2cc(-c3cccc(C(F)(F)F)c3)n(-c3ccc(F)cc3)n2)CN1` [Example 204] are within 0.2 log units of each other in pIC50: 7.82 for the first, 7.74 for the second.

Going from `O=C1C[C@@H](C(=O)Nc2cc(-c3cccc(OC(F)(F)F)c3)n(-c3ccccc3)n2)CN1` [Example 4, (R)-5-oxopyrrolidine-3-carboxylic acid[1-phenyl-5-(3-trifluoromethoxyphenyl)-1H-pyrazol-3-yl]amide] to `O=C1CCC(C(=O)Nc2cc(-c3cccc(OC(F)(F)F)c3)n(-c3ccccc3F)n2)CN1` (single isomer, unassigned) [Example 167], the pIC50 falls from 8.07 to 7.82 (0.25 log units).

`CCC(F)(F)c1cccc(-c2cc(NC(=O)[C@H]3CNC(=O)C3)nn2-c2cccc(F)c2)c1` [Example 181] and `CC(C)(C)c1cccc(-c2cc(NC(=O)[C@@H]3CNC(=O)C3)nn2-c2ccccc2)c1` [Example 26] are within 0.2 log units of each other in pIC50: 8.37 for the first, 8.46 for the second.

First: O=C1C[C@@H](C(=O)Nc2cc(C3CCCCC3)n(-c3ccccc3)n2)CN1 [Example 40]
Second: CCCc1cccc(-c2cc(NC(=O)[C@@H]3CNC(=O)N3)nn2-c2ccccc2)c1 [Example 97]
The pIC50 of the first is 1.81 log units lower: 6.19 for the first, 8.00 for the second. The second is the more potent here.

Same assay, conditions: 14C-AMG uptake, CHO-K1 cells stably expressing human SGLT1

First: CCCc1cccc(-c2cc(NC(=O)[C@@H]3CNC(=O)C3)nn2-c2cccc(OCc3ccccc3)c2)c1 [Example 340]
Second: CCCc1cccc(-c2cc(NC(=O)[C@@H]3CNC(=O)C3)nn2-c2cccc(OC(C)(C)C)c2)c1 [Example 435]
The pIC50 of the first is 0.66 log units lower: 7.80 for the first, 8.46 for the second. The second is the more potent here.

First: CCCOc1cccc(-n2nc(NC(=O)[C@@H]3CNC(=O)C3)cc2-c2cccc(CO[C@H](C)C(F)(F)F)c2)c1 [Example 453]
Second: CCCOc1cccc(-n2nc(NC(=O)[C@@H]3CNC(=O)C3)cc2-c2cccc(COCC(F)(F)F)c2)c1 [Example 448]
The pIC50 of the first is 0.40 log units higher: 8.77 for the first, 8.37 for the second.

Going from `CCCc1cccc(-c2cc(NC(=O)C3CCS(=O)(=O)C3)nn2-c2ccccc2)c1` (racemic) [Example 320] to `CCOCc1cccc(-c2cc(NC(=O)[C@H]3CNC(=O)C3)nn2-c2ccccc2)c1` [Example 285], the pIC50 falls from 8.52 to 7.68 (0.84 log units). The first is the more potent here.

Going from `CCOc1ccc(F)c(-n2nc(NC(=O)[C@@H]3CNC(=O)C3)cc2-c2cccc(OC(F)(F)F)c2)c1` [Example 516] to `CCOc1cc(-n2nc(NC(=O)[C@@H]3CNC(=O)C3)cc2-c2cccc(OC(F)(F)F)c2)ccc1F` [Example 421], the pIC50 falls from 8.08 to 7.70 (0.38 log units). The first is the more potent here.

Going from `CCCc1cccc(-c2cc(NC(=O)[C@@H]3CNC(=O)C3)nn2-c2cccc(OC3CCCC3)c2)c1` [Example 382] to `CCCc1cccc(-c2cc(NC(=O)[C@@H]3CNC(=O)C3)nn2-c2ccc(OC)cc2)c1` [Example 362], the pIC50 falls from 7.92 to 7.52 (0.40 log units).

First: CCCc1cccc(-c2cc(NC(=O)[C@@H]3CNC(=O)C3)nn2-c2ccccc2C(C)C)c1 [Example 359]
Second: CCCc1cccc(-c2cc(NC(=O)[C@@H]3CNC(=O)C3)nn2-c2cccc(C=C(C)C)c2)c1 [Example 493]
The pIC50 of the first is 0.68 log units lower: 7.41 for the first, 8.09 for the second.

Compared with `CC(C)(OCc1cc(F)cc(-c2cc(NC(=O)[C@H]3CNC(=O)N3)nn2-c2ccccc2)c1)C(F)(F)F` [Example 601], `C[C@@H](OCc1cc(F)cc(-c2cc(NC(=O)[C@H]3CNC(=O)N3)nn2-c2ccc(Cl)cc2)c1)C(F)(F)F` [Example 570] is 0.55 log units higher in pIC50: 7.51 for the first, 8.06 for the second.

First: CCCc1cccc(-c2cc(NC(=O)[C@@H]3CNC(=O)C3)nn2-c2cccc(C#CC(C)(C)C)c2)c1 [Example 495]
Second: CCCc1cccc(-c2cc(NC(=O)[C@@H]3CNC(=O)C3)nn2-c2cc(C)cc(C)c2)c1 [Example 322]
The pIC50 of the first is 0.67 log units lower: 7.66 for the first, 8.33 for the second.

`CC(C)(C)C(=O)c1cccc(-c2cc(NC(=O)[C@@H]3CNC(=O)C3)nn2-c2ccccc2)c1` [Example 356] and `CC(C)(OCc1cccc(-c2cc(NC(=O)[C@@H]3CNC(=O)C3)nn2-c2ccccc2)c1)C(F)(F)F` [Example 352] are within 0.2 log units of each other in pIC50: 7.96 for the first, 7.85 for the second.

`C[C@@H](OCc1cccc(-c2cc(NC(=O)C3CCC(=O)NC3)nn2-c2ccccc2)c1)C(F)(F)F` (stereo partly shown) [Example 565] and `C[C@H](OCc1cccc(-c2cc(NC(=O)[C@@H]3CNC(=O)C3)nn2-c2ccccc2)c1)C(F)(F)F` [Example 335] are within 0.2 log units of each other in pIC50: 7.96 for the first, 7.80 for the second.

Compared with `O=C1NC[C@H](C(=O)Nc2cc(-c3cccc(COCCC(F)(F)F)c3)n(-c3ccccc3)n2)N1` [Example 354], `O=C1C[C@H](C(=O)Nc2cc(-c3cccc(COC(F)(F)F)c3)n(-c3ccccc3)n2)CN1` [Example 399] is 0.62 log units higher in pIC50: 7.10 for the first, 7.72 for the second.

Compared with `CCOc1cccc(-n2nc(NC(=O)[C@@H]3CNC(=O)C3)cc2-c2cccc(COCC(F)(F)F)c2)c1` [Example 447], `O=C1C[C@H](C(=O)Nc2cc(-c3cccc(COCC(F)(F)F)c3)n(-c3cccc(F)c3)n2)CN1` [Example 468] is 0.56 log units lower in pIC50: 8.33 for the first, 7.77 for the second.

First: C[C@@H](OCc1cc(F)cc(-c2cc(NC(=O)[C@@H]3CNC(=O)C3)nn2-c2ccc(F)cc2)c1)C(F)(F)F [Example 239, (S)-5-oxopyrrolidine-3-carboxylic acid{1-(4-fluorophenyl)-5-[3-fluoro-5-((R)-2,2,2-trifluoro-1-methylethoxymethyl)phenyl]-1H-pyrazol-3-yl}amide]
Second: O=C1C[C@H](C(=O)Nc2cc(-c3cc(F)cc(COCC(F)(F)F)c3)n(-c3cccc(F)c3)n2)CN1 [Example 520]
The pIC50 of the first is 0.41 log units higher: 8.15 for the first, 7.74 for the second. The first is the more potent here.

`O=C1C[C@H](C(=O)Nc2cc(-c3cc(F)cc(COCC(F)(F)F)c3)n(-c3cccc(Cl)c3)n2)CN1` [Example 511] and `CC(C)Oc1cc(F)cc(-n2nc(NC(=O)[C@@H]3CNC(=O)C3)cc2-c2cccc(OC(F)(F)F)c2)c1` [Example 526] are within 0.2 log units of each other in pIC50: 8.10 for the first, 8.04 for the second.

First: C[C@@H](OCc1cccc(-c2cc(NC(=O)[C@@H]3CNC(=O)C3)nn2-c2ccccc2F)c1)C(F)(F)F [Example 472]
Second: O=C1C[C@H](C(=O)Nc2cc(-c3cccc(OC(F)(F)F)c3)n(-c3ccccc3F)n2)CN1 [Example 466]
The pIC50 of the first is 0.53 log units higher: 8.33 for the first, 7.80 for the second. The first is the more potent here.

Compared with `CCCOCc1cccc(-c2cc(NC(=O)[C@@H]3CNC(=O)C3)nn2-c2ccccc2)c1` [Example 300], `CC(OCc1cccc(-c2cc(NC(=O)[C@H]3CNC(=O)C3)nn2-c2ccccc2)c1)(C(F)(F)F)C(F)(F)F` [Example 364] is 0.66 log units higher in pIC50: 7.42 for the first, 8.08 for the second.

With `O=C1C[C@H](C(=O)Nc2cc(-c3cccc(OC(F)(F)F)c3)n(-c3ccccc3Cl)n2)CN1` [Example 473] the pIC50 was 8.12.

Same assay, conditions: CHO-K1, at 0.1 uM

Compared with `O=C1C[C@H](C(=O)Nc2cc(-c3cccc(CO[C@@H]4CCOC4)c3)n(-c3ccccc3)n2)CN1` [Example 536], `O=C1C[C@H](C(=O)Nc2cc(-c3cccc(CO[C@H]4CCOC4)c3)n(-c3ccccc3)n2)CN1` [Example 537] is lower in inhibition at 0.1 µM: 15% for the first, 1% for the second.

Going from `CCC1C(=O)NCC1C(=O)Nc1cc(-c2cccc(OC(F)(F)F)c2)n(-c2ccccc2)n1` (stereo not shown) [Example 310] to `CCCc1cccc(-c2cc(NC(=O)C3CNC(=O)C(C)C3)nn2-c2ccccc2)c1` (racemic) [Example 292], the inhibition at 0.1 µM rises from 42% to 43%.

Going from `CC(C)(C)OC(=O)c1cccc(-c2cc(NC(=O)[C@@H]3CNC(=O)C3)nn2-c2ccccc2)c1` [Example 413] to `COCc1cccc(-c2cc(NC(=O)[C@@H]3CNC(=O)C3)nn2-c2ccccc2)c1` [Example 265], the inhibition at 0.1 µM falls from 48% to 17%.

Compared with `CCCc1cc(CO)cc(-c2cc(NC(=O)[C@H]3CNC(=O)C3)nn2-c2ccccc2)c1` [Example 146], `CCCc1cccc(-c2cc(NC(=O)[C@@H]3CNC(=O)CN3)nn2-c2ccccc2)c1` [Example 500] is lower in inhibition at 0.1 µM: 38% for the first, 19% for the second.

First: O=C1C[C@H](C(=O)Nc2cc(-c3cccc(CO[C@@H]4CCCOC4)c3)n(-c3ccccc3)n2)CN1 [Example 538]
Second: C[C@@H](OCc1cccc(-c2cc(NC(=O)[C@@H]3CNC(=O)C3)nn2C2CCOCC2)c1)C(F)(F)F [Example 582]
The inhibition at 0.1 µM of the first is lower: 33% for the first, 47% for the second.

Same assay, conditions: CHO-K1, at 0.3 uM

`CCCc1cccc(-c2cc(NC(=O)[C@H]3CN(CC)C(=O)N3)nn2-c2ccccc2)c1` [Example 330] and `CCCc1cccc(-c2cc(NC(=O)[C@@H]3CNC(=O)N3CC(=O)O)nn2-c2ccccc2)c1` [Example 347] are the same in inhibition at 0.3 µM: 11% for the first, 11% for the second.

`CC1C(=O)NC(O)C1C(=O)Nc1cc(-c2cccc(OC(F)(F)F)c2)n(-c2ccccc2)n1` (racemic) [Example 254] showed an inhibition at 0.3 µM of 49%.

Same assay, conditions: at 0.1 uM

In the case of `O=C1COC(C(=O)Nc2cc(-c3cccc(OC(F)(F)F)c3)n(-c3ccccc3)n2)CN1` (stereo not shown) [Example 278], the “human SGLT1 % Inhibition” value was 34%.
